# According to US20210070748A1, “INHIBITORS OF BRUTONS TYROSINE KINASE” (Pharmacyclics LLC, priority 2015, published 2021):
# Experiments:
# Assay type in all cases: biochemical
# TEC = target: T1, TEC (Homo sapiens, UniProt P42680); assay: Inhibition of a panel of kinases, in vitro HotSpot kinase assay: TEC; conditions: D-compounds panel data; 1 μM ATP
# T1 sequence (P42680 1-631): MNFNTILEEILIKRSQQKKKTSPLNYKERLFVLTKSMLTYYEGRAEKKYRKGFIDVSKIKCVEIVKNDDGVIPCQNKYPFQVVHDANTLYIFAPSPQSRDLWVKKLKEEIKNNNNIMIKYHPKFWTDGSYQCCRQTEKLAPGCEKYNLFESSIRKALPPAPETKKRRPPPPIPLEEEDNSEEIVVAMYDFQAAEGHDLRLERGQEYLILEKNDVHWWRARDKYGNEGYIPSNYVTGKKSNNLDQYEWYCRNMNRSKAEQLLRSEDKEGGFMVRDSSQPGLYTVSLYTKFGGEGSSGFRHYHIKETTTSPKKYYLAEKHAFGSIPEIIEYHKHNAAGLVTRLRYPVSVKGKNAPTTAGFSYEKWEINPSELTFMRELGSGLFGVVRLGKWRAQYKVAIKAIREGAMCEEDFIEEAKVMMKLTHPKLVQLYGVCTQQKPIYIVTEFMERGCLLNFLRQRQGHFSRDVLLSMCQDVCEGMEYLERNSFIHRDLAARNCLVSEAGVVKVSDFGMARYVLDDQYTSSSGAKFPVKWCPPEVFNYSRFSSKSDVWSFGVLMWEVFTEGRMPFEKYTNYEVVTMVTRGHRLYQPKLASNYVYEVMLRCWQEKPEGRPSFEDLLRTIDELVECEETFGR
# Experimental: (§1) The degree of inhibition of a panel of kinases is determined using the in vitro HotSpot kinase assay (purified enzymes, ^33P-ATP, an appropriate substrate and 1 μM ATP).
# SRC = SRC (Homo sapiens, UniProt P12931); assay: Inhibition of a panel of kinases, in vitro HotSpot kinase assay: SRC; conditions: D-compounds panel data; 1 μM ATP
# Experimental: as §1
# ITK = target: T2, ITK (Homo sapiens, UniProt Q08881); assay: Inhibition of a panel of kinases, in vitro HotSpot kinase assay: ITK; conditions: D-compounds panel data; 1 μM ATP
# T2 sequence (Q08881 1-620): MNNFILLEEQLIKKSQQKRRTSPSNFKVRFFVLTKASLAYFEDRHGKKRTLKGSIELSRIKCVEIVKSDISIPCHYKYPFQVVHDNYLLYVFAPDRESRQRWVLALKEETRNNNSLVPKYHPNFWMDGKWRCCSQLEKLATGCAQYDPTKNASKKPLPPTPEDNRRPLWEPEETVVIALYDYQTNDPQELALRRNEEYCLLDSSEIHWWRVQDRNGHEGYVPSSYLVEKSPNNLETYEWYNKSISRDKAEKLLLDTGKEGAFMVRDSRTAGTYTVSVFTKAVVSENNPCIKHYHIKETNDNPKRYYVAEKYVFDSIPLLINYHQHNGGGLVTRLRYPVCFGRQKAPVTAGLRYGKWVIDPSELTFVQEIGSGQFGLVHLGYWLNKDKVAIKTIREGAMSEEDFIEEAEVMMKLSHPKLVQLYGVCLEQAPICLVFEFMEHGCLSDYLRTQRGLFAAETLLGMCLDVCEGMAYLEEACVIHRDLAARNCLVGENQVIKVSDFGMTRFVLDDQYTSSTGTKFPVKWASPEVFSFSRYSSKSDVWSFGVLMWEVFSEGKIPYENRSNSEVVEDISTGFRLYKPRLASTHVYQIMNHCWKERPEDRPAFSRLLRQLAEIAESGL
# Experimental: as §1
# BTK-WT = target: T3, BTK-WT (Homo sapiens, UniProt Q06187); assay: Btk in vitro inhibitory activity (one of Method A TR-FRET, Method B electrophoretic mobility shift, Method C radiometric filter binding); conditions: D-compounds panel data; read-out: IC50 BTK-WT
# T3 construct: purified from insect cells as a full-length construct containing an N-terminal 6X-His tag; His6 (N); made in house; host or cells: insect cells (baculovirus Sf21 in Method B)
# LCK = LCK (Homo sapiens, UniProt P06239); assay: Inhibition of a panel of kinases, in vitro HotSpot kinase assay: LCK; conditions: D-compounds panel data; 1 μM ATP; read-out: IC50 LCK
# Chain of LCK (P06239 whole entry): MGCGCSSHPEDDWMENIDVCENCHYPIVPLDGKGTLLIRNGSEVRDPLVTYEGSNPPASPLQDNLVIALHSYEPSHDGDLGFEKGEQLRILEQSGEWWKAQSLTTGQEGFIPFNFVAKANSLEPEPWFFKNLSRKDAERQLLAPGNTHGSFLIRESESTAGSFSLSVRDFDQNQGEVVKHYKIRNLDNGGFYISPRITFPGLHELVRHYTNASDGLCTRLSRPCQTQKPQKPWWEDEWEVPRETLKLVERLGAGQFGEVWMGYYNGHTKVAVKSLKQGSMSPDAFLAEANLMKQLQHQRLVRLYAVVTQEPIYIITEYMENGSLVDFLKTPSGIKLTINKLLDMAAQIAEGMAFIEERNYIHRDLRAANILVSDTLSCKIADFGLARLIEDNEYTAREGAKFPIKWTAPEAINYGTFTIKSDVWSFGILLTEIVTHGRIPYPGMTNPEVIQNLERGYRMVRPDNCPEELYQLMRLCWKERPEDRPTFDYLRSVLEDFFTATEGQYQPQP
# Chain of SRC (P12931 whole entry): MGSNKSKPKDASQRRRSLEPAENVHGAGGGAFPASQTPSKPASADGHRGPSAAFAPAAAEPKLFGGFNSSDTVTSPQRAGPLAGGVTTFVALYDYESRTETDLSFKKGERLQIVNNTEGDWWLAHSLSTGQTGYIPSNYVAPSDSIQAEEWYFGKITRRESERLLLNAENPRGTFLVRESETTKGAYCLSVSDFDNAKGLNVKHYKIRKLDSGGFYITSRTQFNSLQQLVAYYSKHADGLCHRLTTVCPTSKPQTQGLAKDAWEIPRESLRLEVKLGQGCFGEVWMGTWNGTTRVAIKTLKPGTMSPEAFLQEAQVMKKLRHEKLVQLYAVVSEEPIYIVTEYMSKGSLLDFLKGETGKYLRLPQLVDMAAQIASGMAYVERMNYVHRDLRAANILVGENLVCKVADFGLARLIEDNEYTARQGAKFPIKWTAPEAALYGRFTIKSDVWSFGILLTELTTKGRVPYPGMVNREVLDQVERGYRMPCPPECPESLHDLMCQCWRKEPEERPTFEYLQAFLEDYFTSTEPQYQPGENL
# T3 sequence (Q06187 whole entry): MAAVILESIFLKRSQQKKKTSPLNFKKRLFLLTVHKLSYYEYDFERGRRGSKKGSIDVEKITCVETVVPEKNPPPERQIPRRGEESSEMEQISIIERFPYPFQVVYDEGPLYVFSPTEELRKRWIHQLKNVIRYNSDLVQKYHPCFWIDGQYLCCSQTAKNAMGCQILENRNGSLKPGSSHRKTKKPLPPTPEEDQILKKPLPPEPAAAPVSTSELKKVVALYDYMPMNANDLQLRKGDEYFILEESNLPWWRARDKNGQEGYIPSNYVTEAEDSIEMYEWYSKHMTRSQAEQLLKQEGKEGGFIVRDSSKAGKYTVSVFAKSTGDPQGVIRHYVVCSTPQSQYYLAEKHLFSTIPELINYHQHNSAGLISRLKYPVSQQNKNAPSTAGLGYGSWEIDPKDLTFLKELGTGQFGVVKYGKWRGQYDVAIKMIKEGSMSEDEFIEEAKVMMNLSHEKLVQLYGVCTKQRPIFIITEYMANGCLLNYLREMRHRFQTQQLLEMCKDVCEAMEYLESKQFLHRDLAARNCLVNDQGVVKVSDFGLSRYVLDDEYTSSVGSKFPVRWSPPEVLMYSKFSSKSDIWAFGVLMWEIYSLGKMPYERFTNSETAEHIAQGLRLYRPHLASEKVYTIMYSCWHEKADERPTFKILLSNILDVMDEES
SMILES,IC50 (TEC),IC50 (SRC),IC50 (ITK),IC50 (BTK-WT),IC50 (LCK)
"C[C@@H]1[C@H](NC(=O)c2ccc(C3CC3)cc2)CCCN1c1cnc(C(N)=O)c(Nc2ccc3c(c2)CCOC3)n1 [Example D-303, 5-[(2R,3R)-3-(4-cyclopropylbenzamido)-2-methylpiperidin-1-yl]-3-[(3,4-dihydro-1H-2-benzopyran-6-yl)amino]pyrazine-2-carboxamide]",10 to 100 nM,1000 to 10000 nM,1000 to 10000 nM,10 to 100 nM,> 10000 nM
"CCN(C)C(=O)N[C@@H]1CCCN(c2cnc(C(N)=O)c(Nc3cnn(C)c3)n2)[C@@H]1C [Example D-304, 5-[(2R,3R)-3-{[ethyl(methyl)carbamoyl]amino}-2-methylpiperidin-1-yl]-3-[(1-methyl-1H-pyrazol-4-yl)amino]pyrazine-2-carboxamide]",10 to 100 nM,100 to 1000 nM,1000 to 10000 nM,≤ 10 nM,100 to 1000 nM
"C[C@@H]1[C@H](NC(=O)c2ccc(C3CC3)nc2)CCCN1c1cnc(C(N)=O)c(Nc2ccc(N3CCC(F)(F)CC3)cc2)n1 [Example D-305, 5-[(2R,3R)-3-(6-cyclopropylpyridine-3-amido)-2-methylpiperidin-1-yl]-3-{[4-(4,4-difluoropiperidin-1-yl)phenyl]amino}pyrazine-2-carboxamide]",10 to 100 nM,10 to 100 nM,100 to 1000 nM,≤ 10 nM,100 to 1000 nM
"C[C@@H]1[C@H](NC(=O)N(C)C)CCCN1c1cnc(C(N)=O)c(Nc2ccc(N3CCC(F)(F)CC3)cc2)n1 [Example D-306, 3-{[4-(4,4-difluoropiperidin-1-yl)phenyl]amino}-5-[(2R,3R)-3-[(dimethylcarbamoyl)amino]-2-methylpiperidin-1-yl]pyrazine-2-carboxamide]",10 to 100 nM,100 to 1000 nM,100 to 1000 nM,≤ 10 nM,100 to 1000 nM
"C[C@@H]1[C@H](NC(=O)c2ccc(C3CC3)cc2)CCCN1c1cnc(C(N)=O)c(Nc2cnn(C3CCC(F)(F)CC3)c2)n1 [Example D-307, 5-[(2R,3R)-3-(4-cyclopropylbenzamido)-2-methylpiperidin-1-yl]-3-{[1-(4,4-difluorocyclohexyl)-1H-pyrazol-4-yl]amino}pyrazine-2-carboxamide]",10 to 100 nM,100 to 1000 nM,1000 to 10000 nM,≤ 10 nM,100 to 1000 nM
"C[C@@H]1[C@H](NC(=O)c2ccc(C(C)(C)O)cc2F)CCCN1c1nnc(C(N)=O)c(Nc2cnn(C)c2)n1 [Example D-308, 3-[(2R,3R)-3-[2-fluoro-4-(2-hydroxypropan-2-yl)benzamido]-2-methylpiperidin-1-yl]-5-[(1-methyl-1H-pyrazol-4-yl)amino]-1,2,4-triazine-6-carboxamide]",≤ 10 nM,10 to 100 nM,10 to 100 nM,≤ 10 nM,10 to 100 nM
"C[C@@H]1[C@H](NC(=O)c2ccc(C3CC3)nc2)CCCN1c1cnc(C(N)=O)c(Nc2ccc(OC3CCOCC3)cc2)n1 [Example D-309, 5-[(2R,3R)-3-(6-cyclopropylpyridine-3-amido)-2-methylpiperidin-1-yl]-3-{[4-(oxan-4-yloxy)phenyl]amino}pyrazine-2-carboxamide]",≤ 10 nM,10 to 100 nM,100 to 1000 nM,≤ 10 nM,100 to 1000 nM
"C[C@@H]1[C@H](NC(=O)c2ccc(C3CC3)cc2)CCCN1c1cnc(C(N)=O)c(Nc2cc(C3CCOCC3)ns2)n1 [Example D-310, 5-[(2R,3R)-3-(4-cyclopropylbenzamido)-2-methylpiperidin-1-yl]-3-{[3-(oxan-4-yl)-1,2-thiazol-5-yl]amino}pyrazine-2-carboxamide]",≤ 10 nM,10 to 100 nM,10 to 100 nM,≤ 10 nM,10 to 100 nM
"C[C@@H]1[C@H](NC(=O)c2ccc(C3CC3)cc2)CCCN1c1cnc(C(N)=O)c(Nc2cc(C3CCN(C4CCCC4)CC3)ns2)n1 [Example D-311, 3-{[3-(1-cyclopentylpiperidin-4-yl)-1,2-thiazol-5-yl]amino}-5-[(2R,3R)-3-(4-cyclopropylbenzamido)-2-methylpiperidin-1-yl]pyrazine-2-carboxamide]",10 to 100 nM,10 to 100 nM,10 to 100 nM,≤ 10 nM,10 to 100 nM
"C[C@@H]1[C@H](NC(=O)c2ccc(C3CC3)cc2)CCCN1c1cnc(C(N)=O)c(Nc2cc(C3CCN(C)CC3)ns2)n1 [Example D-312, 5-[(2R,3R)-3-(4-cyclopropylbenzamido)-2-methylpiperidin-1-yl]-3-{[3-(1-methylpiperidin-4-yl)-1,2-thiazol-5-yl]amino}pyrazine-2-carboxamide]",≤ 10 nM,≤ 10 nM,10 to 100 nM,≤ 10 nM,< 10 nM
"C[C@@H]1[C@H](NC(=O)c2ccc(C3CC3)cc2F)CCCN1c1cnc(C(N)=O)c(Nc2ccc(N3CCNCC3)c(F)c2)n1 [Example D-313, 5-[(2R,3R)-3-(4-cyclopropyl-2-fluorobenzamido)-2-methylpiperidin-1-yl]-3-{[3-fluoro-4-(piperazin-1-yl)phenyl]amino}pyrazine-2-carboxamide]",≤ 10 nM,10 to 100 nM,10 to 100 nM,≤ 10 nM,10 to 100 nM
"C[C@@H]1[C@H](NC(=O)N(C)C2CC2)CCCN1c1cnc(C(N)=O)c(Nc2cnn(C)c2)n1 [Example D-314, 5-[(2R,3R)-3-{[cyclopropyl(methyl)carbamoyl]amino}-2-methylpiperidin-1-yl]-3-[(1-methyl-1H-pyrazol-4-yl)amino]pyrazine-2-carboxamide]",10 to 100 nM,10 to 100 nM,100 to 1000 nM,≤ 10 nM,100 to 1000 nM
"C[C@@H]1[C@H](NC(=O)c2ccc(C3CC3)cc2)CCCN1c1cnc(C(N)=O)c(Nc2ccc3c(c2)OC(F)(F)O3)n1 [Example D-315, 5-[(2R,3R)-3-(4-cyclopropylbenzamido)-2-methylpiperidin-1-yl]-3-[(2,2-difluoro-2H-1,3-benzodioxol-5-yl)amino]pyrazine-2-carboxamide]",1000 to 10000 nM,> 10000 nM,> 10000 nM,1000 to 10000 nM,> 10000 nM
